The values that follow come from patent publication US20230310445A1, “LOX ENZYME INHIBITING METHODS AND COMPOSITIONS” (ANOVIA BIOSCIENCES, INC., priority 2020, published 2023).

Structures are written as SMILES.

In assay [1] the target is T1, Recombinant human LOXL2 (lysyl oxidase like 2) (Homo sapiens, UniProt Q9Y4K0).
T1 construct: purchased R&D systems
T1 sequence (Q9Y4K0 26-774): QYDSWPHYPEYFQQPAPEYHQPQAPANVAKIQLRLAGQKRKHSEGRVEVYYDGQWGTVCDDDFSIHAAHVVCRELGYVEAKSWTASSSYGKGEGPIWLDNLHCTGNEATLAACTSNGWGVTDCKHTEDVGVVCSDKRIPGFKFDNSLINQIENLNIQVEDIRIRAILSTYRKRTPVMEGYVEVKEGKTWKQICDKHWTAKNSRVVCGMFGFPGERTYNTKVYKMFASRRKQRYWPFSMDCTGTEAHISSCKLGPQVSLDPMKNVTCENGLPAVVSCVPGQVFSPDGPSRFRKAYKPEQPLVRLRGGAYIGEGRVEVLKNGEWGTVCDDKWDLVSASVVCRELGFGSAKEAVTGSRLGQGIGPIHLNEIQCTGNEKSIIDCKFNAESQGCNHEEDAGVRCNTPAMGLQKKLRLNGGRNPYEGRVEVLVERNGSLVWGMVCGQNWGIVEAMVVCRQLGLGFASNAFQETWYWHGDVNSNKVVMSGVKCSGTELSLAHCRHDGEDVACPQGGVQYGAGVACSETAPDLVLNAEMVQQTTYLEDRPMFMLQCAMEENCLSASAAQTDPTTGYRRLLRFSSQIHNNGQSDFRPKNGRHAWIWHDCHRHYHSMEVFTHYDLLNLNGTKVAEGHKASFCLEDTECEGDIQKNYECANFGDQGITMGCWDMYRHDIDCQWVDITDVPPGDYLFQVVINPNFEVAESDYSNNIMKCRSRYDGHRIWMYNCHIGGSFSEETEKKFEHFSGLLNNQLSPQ
The assay can be described thus: LOXL2 inhibition assay (fluorometric, cadaverine/Amplex Red/HRP). Type of assay: biochemical. The note with it: IC50 class; recombinant human LOXL2, cadaverine substrate; read-out: Activity Range LOXL2. The procedure:
(§1) The ability of compounds to inhibit one or more of the lysyl oxidases LOXL2 and/or LOXL3 was determined using a fluorometric assay. This assay measures the activity of lysyl oxidases by coupling the reaction with horseradish peroxidase-catalyzed […]. The activity assay protocol uses cadaverine as substrate that releases hydrogen peroxide upon transformation by the specific LOX family enzyme present in the sample. Hydrogen peroxide is in turn detected using a red fluorescence substrate for HRP-coupled reactions (Amplex Red Enzyme Assays, Thermo Scientific Fisher). This leads to increase in fluorescence that can be easily detected at Ex/Em=540/590 nm in a fluorescence microplate reader.
Enzymes: Recombinant human LOXL2 (lysyl oxidase like 2) and recombinant human LOXL3 (lysyl oxidase like 3) were purchased from R&D systems and assays were performed in 1.2 M urea, 50 mM sodium borate buffer pH 8.0, and 10 mM CaCl.
Reaction: Final concentration in the LOXL2 and LOXL3 assays were as following and performed in a total volume of […]:
Experimental procedure: 5 μl of freshly prepared reaction buffer were delivered to reaction wells. Compounds were resuspended in 100% DMSO at 10 mM and delivered into buffer using acoustic technology (Echo550; nanoliter range). A 3× solution of LOXL2 or LOXL3 in reaction buffer was prepared (“enzyme solution”) and 5 μL of enzyme solution was added into the reaction wells. Buffer only was added to column 1 for no protein control. Reactions were incubated for 30 minutes at 37° C. A 3×mixture of cadaverine, Amplex Red, and HRP (“Substrate/Detection Mix) was prepared and subsequently 5 μL of the mixture added to each reaction well. Progress of reactions was monitored for 60 minutes at 37° C. using Clariostar plate reader (ex 530-12, ems 600-40). For all activity assays, pan-LOX inhibitor CCT365623 (Tang et al, 2017) and LOXL2/LOXL3 inhibitor PAT-1251 (PharmaKea) were included as standards.
Data analysis: Slope of the linear portion of the progress curve was calculated using Clariostar software. Typical analysis interval was between 8-30 min, but varied between experiments. The background subtracted signals (No protein wells are considered as background) were converted to % activity relative to DMSO controls. Data was analyzed using GraphPad Prism 4 with “sigmoidal dose-response (variable slope)”; 4 parameters with Hill Slope. Constraints: Bottom=Constant equal to 0. Top=Must be less than 120.

Assay [2] has as its target T2, Bovine lysyl oxidase (LOX) (Bos taurus, UniProt P33072).
T2 construct: from tissue; host or cells: adult bovine tendon
T2 sequence (P33072 170-418): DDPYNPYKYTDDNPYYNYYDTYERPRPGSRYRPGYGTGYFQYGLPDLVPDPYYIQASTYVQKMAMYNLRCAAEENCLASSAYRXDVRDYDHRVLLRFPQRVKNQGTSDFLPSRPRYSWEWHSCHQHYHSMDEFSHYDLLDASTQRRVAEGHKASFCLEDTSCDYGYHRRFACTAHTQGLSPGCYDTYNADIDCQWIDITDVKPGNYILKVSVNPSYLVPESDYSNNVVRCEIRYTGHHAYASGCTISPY
The assay can be described thus: LOX inhibition assay (fluorometric, cadaverine/Amplex Red/HRP). Type of assay: biochemical. Particulars: IC50 class; bovine tendon LOX, cadaverine substrate; read-out: Activity Range LOX. The protocol: as §1, with “prototypic LOX” for “one or more of the lysyl oxidases LOXL2 and/or LOXL3”, “prototypic” for “the specific”, “LOX” for “LOX family”
Enzyme: Bovine lysyl oxidase (LOX) was extracted by adapting the methodology from [Kagan et al. 1979 and Borel et al. 2001.] from bovine tendon: Frozen adult bovine tendon was placed in room temperature water to defrost, and then membranes were removed and the remaining tissue cut into 1 cm pieces. The material was first passed through a course mesh meat grinder, and this mince was passed through a fine mesh grinder. The mince was homogenized in 10 v/w of buffer (16 mM sodium phosphate buffer pH 7.8, 400 mM NaCl) using a Waring blender. The homogenate was centrifuged at 15,000×g for 15 min at 4° C. After centrifugation, the supernatant was discarded and the pellets resuspended in 10 volumes of the same buffer. The mixture was blended again and centrifuged with the same settings. This time the pellets were blended in 3 volumes of extraction buffer (16 mM sodium phosphate buffer pH 7.8) and left to incubate at 4° C. for 2 h. After this time, the slurry was centrifuged with the same settings as described above. The supernatant was used in an ultrafiltration step to remove large proteins by size exclusion through a 30 kDalton filter (EMD Millipore). The filtrate was mixed with DEAE Sephadex (GE Healthcare), or passed over a MonoQ FPLC column. After two washes, one in 16 mM sodium phosphate buffer pH 7.8, 380 mM NaCl, and another in 16 mM sodium phosphate buffer pH 7.8, the proteins were eluted with 16 mM sodium phosphate pH 7.8, 10 μM CuSO4, and 4 M urea. Fractions containing Lox activity were collected and stored frozen at −70° C.
Reaction: Final concentration in the LOX assay was as following and performed in a total volume of […]:
Experimental procedure: 7 μl of freshly prepared reaction buffer were delivered to reaction wells. Compounds were resuspended in 100% DMSO at 10 mM and delivered into buffer using acoustic technology (Echo550; nanoliter range). A 2.85× solution of LOX protein in reaction buffer was prepared (“LOX solution”) and 7 μl of LOX solution was added into the reaction wells. Buffer only was added to column 1 for no protein control. Reactions were incubated for 30 minutes at 37° C. A 3.33× mixture of cadaverine, Amplex Red, and HRP (“Substrate/Detection Mix) was prepared and subsequently 6 μL of the mixture was added to each reaction well. Progress of reactions was monitored for 120 minutes at 37° C. using Clariostar plate reader (ex530-12, ems 600-40). For all activity assays, pan-LOX inhibitor CCT365623 (Tang et al, 2017) and LOXL2/LOXL3 inhibitor PAT-1251 (PharmaKea) were included as standards.
Data analysis: Slope of the linear portion of the progress curve was calculated using Clariostar software. Typical analysis interval was between 20-50 min, but varied between experiments. The background subtracted signals (No protein wells were considered as background) were converted to % activity relative to DMSO controls. Data was analyzed using GraphPad Prism 4 with “sigmoidal dose-response (variable slope)”; 4 parameters with Hill Slope. Constraints: Bottom=Constant equal to 0. Top=Must be less than 120.

As for `CS(=O)(=O)N1C[C@@H](Oc2cc(CN)ccc2F)C[C@H](c2ccccc2)C1` (racemic) [Example 90, trans-(4-Fluoro-3-((-1-(methylsulfonyl)-5-phenylpiperidin-3-yl)oxy)phenyl)Methanamine 2,2,2-trifluoroacetate], the IC50 in assay [1] was 0.5 to 1 µM; in assay [2] it was > 30 µM.

`CN(C)C(=O)N1C[C@@H](C2CCCCC2)C[C@@H](S(=O)(=O)c2cccc(CN)c2)C1` (racemic) [Example 135, cis-3-((3-(Aminomethyl)phenyl)sulfonyl)-5-cyclohexyl-N,N-dimethylpiperidine-1-carboxamide]: the IC50 in assay [1] was ≤ 0.5 µM; in assay [2] it was > 30 µM.

With `CN1CCN(C(=O)[C@H]2C[C@@H](N3CCCCC3)CN(S(=O)(=O)c3cc(CN)ccn3)C2)CC1` (racemic) [Example 150, cis-(1′-((4-(Aminomethyl)pyridin-2-yl)sulfonyl)-[1,3′-bipiperidin]-5′-yl)(4-methylpiperazin-1-yl)methanone 2,2,2-trifluoroacetate], the IC50 is 0.5 to 1 µM in assay [1] and 1 to 30 µM in assay [2].

In the case of `NCc1cc(S(=O)(=O)N2C[C@H](C(=O)N3CCS(=O)(=O)CC3)C[C@@H](c3ccccc3)C2)ccn1` (racemic) [Example 130T, trans-(1-((2-(Aminomethyl)pyridin-4-yl)sulfonyl)-5-phenylpiperidin-3-yl)(1,1-dioxidothiomorpholino)methanone 2,2,2-trifluoroacetate], the IC50 in assay [1] is ≤ 0.5 µM; in assay [2], 1 to 30 µM.

In the case of `CN(C)C(=O)[C@@H]1C[C@H](S(=O)(=O)c2cccc(CN)c2)CN(C2CCCCC2)C1` (racemic) [Example 141, cis-5-((3-(Aminomethyl)phenyl)sulfonyl)-1-cyclohexyl-N,N-dimethylpiperidine-3-carboxamide], the IC50 in assay [1] is ≤ 0.5 µM; in assay [2], > 30 µM.

`NCc1cnc(S(=O)(=O)N2C[C@H](C(=O)N3CCS(=O)(=O)CC3)C[C@@H](c3ccccc3)C2)s1` (racemic) [Example 112T, trans-(1-((5-(Aminomethyl)thiazol-2-yl)sulfonyl)-5-phenylpiperidin-3-yl)(1,1-dioxidothiomorpholino)methanone 2,2,2-trifluoroacetate]: the IC50 lay within 0.5 to 1 µM in assay [1] and 1 to 30 µM in assay [2].

As for `CN1CCN(C(=O)[C@H]2C[C@@H](c3ccccc3)CN(S(=O)(=O)c3ccc(CN)s3)C2)CC1` (racemic) [Example 17, cis-(1-((5-(Aminomethyl)thiophen-2-yl)sulfonyl)-5-phenylpiperidin-3-yl)(4-methylpiperazin-1-yl)methanone 2,2,2-trifluoroacetate], the IC50 was ≤ 0.5 µM in assay [1] and 0.5 to 1 µM in assay [2].

Turning to `NCc1cccc(S(=O)(=O)N2C[C@@H](C(=O)N3CCS(=O)(=O)CC3)C[C@@H](c3ccccc3)C2)c1` (racemic) [Example 77], the values for the IC50 in assay [1] and in assay [2] were 1 to 30 µM and > 30 µM, respectively.

For the compound `NCc1ccc(S(=O)(=O)N2C[C@@H](C(=O)N3CCS(=O)(=O)CC3)C[C@@H](C3CCCCC3)C2)s1` (racemic) [Example 121, cis-(1-((5-(Aminomethyl)thiophen-2-yl)sulfonyl)-5-cyclohexylpiperidin-3-yl)(1,1-dioxidothiomorpholino)methanone 2,2,2-trifluoroacetate], the IC50 in assay [1] and in assay [2] was ≤ 0.5 µM in each case.

As for `CS(=O)(=O)[C@H]1C[C@@H](S(=O)(=O)c2ccc(CN)cc2)CN(c2ccccc2)C1` (racemic) [Example 22, cis-(4-((5-(Methylsulfonyl)-1-phenylpiperidin-3-yl)sulfonyl)phenyl)methanamine 2,2,2-trifluoroacetate], the IC50 in assay [1] is ≤ 0.5 µM; in assay [2], 1 to 30 µM.

As to `NCc1cccc(S(=O)(=O)N2C[C@H](C(=O)N3CCOCC3)C[C@@H](C(F)(F)F)C2)c1` (racemic) [Example 110], the IC50 in assay [1] is 1 to 30 µM; in assay [2], > 30 µM.

Regarding `CS(=O)(=O)[C@@H]1C[C@H](Oc2cccc(CN)c2)CN(c2ccccc2)C1` (racemic) [Example 21, cis-(3-((-5-(Methylsulfonyl)-1-phenylpiperidin-3-yl)oxy)phenyl)methanamine 2,2,2-trifluoroacetate], the IC50 in assay [1] was 0.5 to 1 µM; in assay [2], > 30 µM.
